One data set is described as follows: in vivo. The settings on record: female, BALB/c, mouse, 0.5 mg/kg.
A short description of data set [1]: Liposome encapsulation efficiency, Quant-iT RiboGreen RNA assay. The data set is classed as physicochemical. To be noted: mRNA-encapsulating liposomal nanoparticles. The protocol:
(§1) Compound 1, compound 2, and comparative compound 1 were each dissolved in an ethanol solution, and the resulting solution was mixed with solutions of DSPC, cholesterol, and DMG-PEG in ethanol in a mole ratio of 50:10:38.5:1.5 to prepare an ethanol lipid solution. mRNA encoding a human growth factor was dissolved in a citrate buffer to prepare an aqueous mRNA solution. Liposomes were prepared by mixing the ethanol lipid solution and the aqueous mRNA solution by microfluidics with a weight ratio of total lipids to mRNA of about 20:1. The ethanol was removed by dialysis against PBS solution to give an mRNA-encapsulating liposomal nanoparticle composition.
The liposome encapsulation efficiency was determined using a Quant-iT RiboGreen RNA assay kit.

For the next data set, the system named is interleukin 6 (IL-6). Put plainly: In vivo immunogenicity: serum IL-6 concentration by ELISA after tail vein injection. Further details: species or system BALB/c mice. The settings on record: 0.5 mg/kg, 6 hours. From the text:
When exogenous substances enter the bodies of mammals, they induce an innate immune response, thereby promoting the production of cytokines. These exogenous substances can cause inflammatory reactions after entry into the body, which easily give rise to adverse reactions such as fever and edema in the body. The immunogenicity of lipid nanoparticles in the body was therefore evaluated by evaluating the concentration of a cytokine such as interleukin 6 (IL-6) in the blood of mice injected with lipid nanoparticles. Lower cytokine concentrations indicate that the lipid nanoparticles have lower immunogenicity, which means that they are biologically safer.
After 6 hours, blood was collected and serum was isolated. The IL-6 concentration in the serum was measured using a mouse IL-6 ELISA kit.
Background: ELISA stands for enzyme-linked immunosorbent assay.

Data set [2] can be described thus: Tissue targeting: cationic lipid concentrations in liver and spleen after tail vein injection, LC-MS. The data set is classed as in vivo, BALB/c mice. To be noted: 0.5 mg/kg; for AUC(0-t): female, BALB/c, mouse, intravenous, HGF mRNA lipid nanoparticles. The protocol:
Based on pharmacokinetic parameters, the total cationic lipid concentrations in the tissues 48 hours after administration were calculated to evaluate the distribution of lipid nanoparticles in the liver and spleen.

A further data set relates to luciferase protein. As to the kind of experiment: Tail vein injection in vivo mRNA delivery efficiency, whole-body luciferase fluorescence intensity (IVIS). More on the design: species or system BALB/c mice. To be noted: 0.5 mg/kg, 6 hours; for Fluorescence intensity level (p/s): whole body. Here is the method: After 6 hours, the luciferase substrate was injected intraperitoneally into each mouse. Fluorescence images of the mice were captured using an IVIS small animal optical in vivo imaging system (PerkinElme), and the whole-body fluorescence intensity of the mice was recorded. The level of fluorescence intensity reflects the expression level of luciferase protein, i.e., the in vivo mRNA delivery efficiency of the liposomal nanoparticles. […] In FIG. 2, the fluorescence intensity refers to the whole-body fluorescence intensity of the mice recorded using the IVIS small animal optical in vivo imaging system. The level of fluorescence intensity reflects the expression level of luciferase protein, i.e., the in vivo mRNA delivery efficiency of the lipid nanoparticles.
With the liposomal nanoparticles to which comparative compound 1 corresponds as a control, the mouse tail vein injection in vivo mRNA delivery efficiency of the liposomal nanoparticles to which compound 1, compound 3, and compound 4 correspond was measured.

The test system of data set [3] is hepatocyte growth factor protein. As to the kind of experiment: In vivo mRNA delivery by intramuscular injection, hepatocyte growth factor protein expression by ELISA. Further details: species or system BALB/c mice. The settings on record: HGF mRNA lipid nanoparticles, 0.05 mg/kg; for Mean protein expression level: thigh muscle injection, muscle tissue after 24 hours. The protocol:
After 24 hours, the muscle tissue at the injection site was collected, ground, and lysed. The expression level of hepatocyte growth factor protein (pg/mg), i.e., the hepatocyte growth factor protein amount to which the unit muscle tissue total protein amount corresponds, was then measured using an ELISA kit.
With the liposomal nanoparticles to which comparative compound 1 corresponds as a control, the intramuscular injection in vivo mRNA delivery efficiency of the liposomal nanoparticles to which compounds 1 and 2 correspond was measured.

The conditions of data set [4]: female, BALB/c, mouse, in vivo, 0.5 mg/kg.
Protocol: To evaluate the targeting in liposomal nanoparticles' in vivo delivery, liposomal nanoparticles with mRNA for expression of hepatocyte growth factor encapsulated therein were injected into the tail veins of 6-8 week old female BALB/c mice at a dose of 0.5 mg/kg. Plasma, liver, and spleen samples were collected at 1 hour, 2 hours, 4 hours, 6 hours, 24 hours, and 48 hours after injection of the lipid nanoparticles, and the concentrations of cationic lipid molecules in the plasma samples at the corresponding time points were determined by LC-MS mass spectrometry to evaluate the metabolism and in vivo clearance rate of the lipid nanoparticles. For the lipid nanoparticles to which each compound corresponds, at least 3 biological replicates were used, and the mean cationic lipid concentrations in the tissues were calculated.
Based on pharmacokinetic parameters, the half-lives of the cationic lipids in the tissues were calculated.
Data set [5] is described as follows: pKa of cations in liposomal nanoparticles, TNS fluorescence analysis. It counts as physicochemical. The settings on record: pH at half-maximal TNS fluorescence. The protocol: as §1
The pKa of cations in the liposomal nanoparticles was determined using a fluorescence analysis based on 6-(p-toluidino)-2-naphthalenesulfonic acid sodium salt (TNS). 150 mM NaCl, 10 mM sodium phosphate, 10 mM sodium citrate, 10 mM sodium borate, and buffers of various pH levels ranging from 3 to 11.5 were prepared. A 300 μM TNS solution was prepared and added to the buffers. The lipid nanoparticles were added to the buffers of different pH levels and thoroughly mixed with them. Then the fluorescence intensity at an excitation wavelength of 325 nm and an emission wavelength of 435 nm was measured at room temperature using a fluorescence microplate reader. A fitting analysis of the fluorescence data was performed, with the pKa being the pH value at which half-maximal fluorescence intensity was produced.

Data set [6] can be described thus: Size and polydispersity index of liposomal nanoparticles by dynamic light scattering. It counts as physicochemical. To be noted: mRNA-encapsulating liposomal nanoparticles; lipid:DSPC:cholesterol:DMG-PEG 50:10:38.5:1.5. The protocol: as §1
The size and polydispersity index (PDI) of the liposomal nanoparticles were determined using a Malvern Zetasizer Nano ZS in a 173° backscatter detection mode through dynamic light scattering.

Setting [7] is: luciferase mRNA lipid nanoparticles.
[8] abbreviates: luciferase mRNA lipid nanoparticles, tail vein.

Where two headings read alike, the source gives them in different places.

The half-life is the time needed for the level to fall by half in the phase considered. Low readings indicate fast loss, high ones slow loss. The term pKa denotes the pH at which an ionisable group is half protonated. On to `CCCCCCCCCCCOC(=O)CCCCCN(CCO)CCCCCOCC(=O)OC(CCCCCCCC)CCCCCCCC` [Compound 1], for which, in the data set “in vivo”, the concentration at 1 h is 1160 ng/mL. Also, in the data set “in vivo” (Half-life (hours) Liver), the half-life is 34.2 h. In the data set “in vivo” (Half-life (hours) Spleen), the half-life was 31.9 h. Besides, the “Encapsulation efficiency (%)” value in data set [1] is given as 94.6%. Besides, in the data set with interleukin 6 (IL-6), the “serum IL-6 concentration compared with comparative compound 1” value is “significantly lower”. Also, the AUC(0-t) in data set [2] (cationic lipid in liver, read-out: AUC48 h (h*μg/mL) Liver) is 540 µg·h/mL. In data set [2] (cationic lipid in spleen, read-out: AUC48 h (h*μg/mL) Spleen), the AUC(0-t) turned out to be 493 µg·h/mL. Further, the “concentration in the liver compared with comparative compound 1” value in [2] (liver samples at the various time points (FIG. 3)) is given as “significantly higher”. The “concentration in the spleen compared with comparative compound 1” value in data set [2] (spleen (FIG. 4)) is reported as “significantly lower”. In addition, in the data set on luciferase protein (setting [7]), the “tail vein injection in vivo mRNA delivery efficiency compared with comparative compound 1” value is “significantly better” and the “tail vein injection in vivo mRNA delivery efficiency compared with comparative compound 3 (so in the source)” value was “significantly outperformed”. In addition, the “Fluorescence intensity level (p/s)” value in the data set on luciferase protein (setting [8]) amounted to 1.05E+09 p/s. In addition, in the data set with luciferase protein (tail vein), the “protein expression level relative to lipid nanoparticles of comparative compound 1” value was 2.1 times. In data set [3] (24 hours), the “in vivo mRNA delivery via intramuscular injection compared with comparative compound 1” value is “significantly outperformed” and the “in vivo mRNA delivery via intramuscular injection compared with compound 2” value was “significantly outperformed”. Moreover, in data set [3], the “Mean protein expression level” value is on record as 217.3 pg/mg. Besides, the “time at which completely cleared from plasma” value in data set [4] stood at 4 h. The same compound gave a pKa in data set [5] of 6.65. Besides, in [6], the PDI amounted to 0.08 and the “Size (nm)” value is on record as 87.8 nm.
Regarding `CCCCCCCCCCCOC(=O)CCCCCN(CCO)CCOCCCCC(=O)OC(CCCCCCCC)CCCCCCCC` [Compound 2], the “Encapsulation efficiency (%)” value in data set [1] is on record as 97.3%. In data set [3], the “Mean protein expression level” value was 92.5 pg/mg. Further, in [5], the pKa is 6.38. In data set [6], the PDI came out at 0.07 and the “Size (nm)” value is recorded as 116.5 nm.
With `CCCCCCCCCCCOC(=O)CCCCCN(CCO)CCCCCO[C@@H](C)C(=O)OC(CCCCCCCC)CCCCCCCC` [Compound 3], in data set [1], the “Encapsulation efficiency (%)” value worked out at 96.7%. In addition, the “Fluorescence intensity level (p/s)” value in the data set on luciferase protein (setting [8]) is 4.28E+06 p/s. The same compound showed a pKa in [5] of 6.49. For the same compound, in [6], the PDI stood at 0.09 and the “Size (nm)” value is 79.6 nm.
For `CCCCCCCCCCCOC(=O)CCCCCN(CCO)CCCCCOC(C)(C)C(=O)OC(CCCCCCCC)CCCCCCCC` [Compound 4], in [1], the “Encapsulation efficiency (%)” value worked out at 97.3%. Moreover, in the data set with interleukin 6 (IL-6), the “serum IL-6 concentration compared with comparative compound 1” value is “significantly lower”. In the data set with luciferase protein (setting [7]), the “tail vein injection in vivo mRNA delivery efficiency compared with comparative compound 1” value is “significantly outperformed”. Further, the “Fluorescence intensity level (p/s)” value in the data set with luciferase protein (setting [8]) stood at 6.78E+08 p/s. Further, in [5], the pKa amounted to 6.3. For the same compound, in [6], the PDI amounted to 0.07 and the “Size (nm)” value is reported as 74.8 nm.

The values are drawn from patent publication US20250064750A1, “LIPID AND COMPOSITION USED FOR DELIVERY” (JIANGSU HENGRUI PHARMACEUTICALS CO., LTD., priority 2021, published 2025).
